Experimental data taken from paper PMC12022973, “Proteomimetic Strategy for the Modulation of Intrinsically Disordered Protein MYC” (Journal of the American Chemical Society, 2025).
Starred links: 1 amine or outer side, 2 acyl side, 3 side chain; linkers in the order of their positions; H or OH if unused. Positions of bridges follow the written chain, without caps; N, C: chain ends. Residues, ends and D or L forms follow the SMILES beside them. Chains are numbered I, II in the order given. *: point of attachment. FITC = O=C1OC2(c3ccc(O)cc3Oc3cc(O)ccc32)c2ccc(NC(=S)*)cc21; X1 = c1cc(C[*:1])ccc1COCc1ccc(C[*:2])cc1; βAla = NCCC(=O)O

Tests used:
[1] = target: T1, recombinant human MYC^353–437 protein (His6-MYC^353–437) (Homo sapiens, UniProt P01106); assay: Fluorescence polarization direct binding of fluorescein-labeled CHDs to His6-MYC353-437; conditions: FP direct binding; 15 nM FITC-labeled peptide; His6-MYC serial dilutions from 10 μM; 1X PBS, 1 mM DTT, 5% glycerol, 0.1% pluronic acid, pH 6.7; 25 °C; triplicate; MYC aggregates above 5 μM; read-out: Binding Affinity MYC^353-436, Kd
T1 construct: recombinant human MYC^353–437 protein; made in house; host or cells: E. coli BL21(DE3), pET151-D-TOPO-cMyc vector
Description: pET151-D-TOPO-cMyc vector was kindly provided by Dr. Edward Prochownik from the
Department of Pediatrics at UPMC Children’s Hospital of Pittsburgh. Expression and purification
of Myc353-437 were performed using an established protocol with minor modifications.7 BL21(DE3)
cells were used to express recombinant Myc353-437 protein. Bacteria were grown at 37 °C to OD600
of 0.8 followed by 1 mM IPTG induction and 16-18h growth at RT. Cells were harvested via
centrifugation at 4,000 rpm at 4 °C and the pellet was resuspended in 10 mL of lysis buffer (8 M
urea, 100 mM NaH2PO4, 10 mM Tris HCl, pH 8) supplemented with protease inhibitor cocktail
(PierceTM Protease Inhibitor Tablets) and benzonase nuclease. Suspensions were sonicated on
ice using a Branson Cell Disruptor 200 and centrifuged at 12,000 rpm for 45 min at 4 °C. Clarified
lysate was applied to a column containing pre-equilibrated HisPur Ni-NTA Superflow Agarose
(ThermoFisher Scientific) for overnight at 4 °C. The resin beads were washed with 10 mL of
additional lysis buffer followed by three washes of 10 mL wash buffer (8 M urea, 100 mM
NaH2PO4, 10 mM Tris HCl, 10 mM imidazole). The target protein was eluted with elution buffer (8
M urea, 100 mM NaH2PO4, 10 mM Tris HCl, 250 mM imidazole) and buffer exchanged into 150
mM NaCl, 50 mM Tris HCl, 5% glycerol, pH 6.7. Protein was concentrated by ultra-filtration (3000
MWCO; Amicon Ultra-15 Centrifugal Filter units from EMD Millipore) followed by TEV cleavage
(1:100 w/w of protease to target protein) in 150 mM NaCl, 50 mM Tris HCl, 5% glycerol, pH 6.7
for 24 hrs at 4 °C. The cleaved protein is further purified by reverse-phase HPLC (gradient 10-60
acetonitrile/water with 0.1% TFA over 35 min) to remove TEV protease and un-cleaved protein.
Purified Myc353-437 was lyophilized and stored at -20 °C. Myc353-437 identity was characterized by
(§1) Fluorescence Polarization Binding Assay
(§2) The relative affinities of FITC-CHDMax-1 to His6-Myc353-436 and full-length His6-Max were
(§3) determined using fluorescence polarization-based direct binding assay. The polarization
(§4) experiments were performed using a DTX 880 Multimode Detector (Beckman) at 25 °C with
(§5) excitation and emission wavelengths of 485 and 525 nm, respectively. Each polarization
(§6) experiment was performed in a 96-well round bottom plate (Greiner) in assay buffer: 1X PBS, 1
(§7) mM DTT, 5% glycerol, 0.1% pluronic acid, pH 6.7. The binding affinity (KD) values reported for
(§8) each peptide are from experiments performed in triplicate. Raw values were fit to a sigmoidal
(§9) dose-response nonlinear regression model in GraphPad Prism 6.0.
(§10) All binding experiments with FITC-labeled peptides to His6-Myc353-436 or His6-Max were performed
(§11) under the same conditions. Briefly, serial dilutions of His6-Myc353-436 and His6-Max were made
(§12) from 10 μM into 15 nM of FITC-labeled peptide in assay buffer. KD was determined using the
(§13) KD1 = (RT*(1-FSB) + LST*FSB2)/FSB-LST
(§14) RT = Total concentration of His6-Myc353-436 or His6-Max
(§15) LST = Total concentration of FITC-labeled peptide
(§16) FSB = Fraction of bound FITC-labeled peptide

[2] = target: T2, full-length His6-Max (MAX^1-160) (Homo sapiens, UniProt P61244); assay: Fluorescence polarization direct binding to His6-MAX; conditions: FP direct binding; 15 nM FITC-labeled peptide; His6-MAX from 10 μM; 1X PBS, 1 mM DTT, 5% glycerol, 0.1% pluronic acid, pH 6.7; 25 °C
T2 construct: N.B. (MAX^1-160)
Description: as §1, §2, §3, §4, §5, §6, §7, §8, §9, §10, §11, §12, §13, §14, §15, §16

T1 sequence (P01106 368-452): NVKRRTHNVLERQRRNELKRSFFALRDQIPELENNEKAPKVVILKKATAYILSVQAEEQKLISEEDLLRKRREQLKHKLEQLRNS
T2 sequence (P61244 whole entry): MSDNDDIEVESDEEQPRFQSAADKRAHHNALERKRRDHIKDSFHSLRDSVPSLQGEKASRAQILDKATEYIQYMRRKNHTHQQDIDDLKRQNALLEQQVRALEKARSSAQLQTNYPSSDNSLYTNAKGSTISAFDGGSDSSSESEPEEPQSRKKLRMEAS

| SMILES | Kd [1] [nM] | CHD^Max-1 Binding Affinity, Kd (MAX^1-160) [2] |
| --- | --- | --- |
| CC[C@H](C)[C@H](NC(=O)[C@H](CCCCN)NC(=O)[C@H](CCC(=O)O)NC(=O)[C@H](CCCNC(=N)N)NC(=O)[C@H](CC(C)C)NC(C)=O)C(=O)N[C@@H](C)C(=O)N[C@H](C(=O)N[C@@H](CC(C)C)C(=O)N[C@@H](CCC(N)=O)C(=O)N[C@@H](Cc1c[nH]c2ccccc12)C(=O)N[C@@H](CSCc1ccc(COCc2ccc(CSC[C@H](NC(=O)[C@H](CC(C)C)NC(=O)[C@H](CCC(=O)O)NC(=O)[C@H](CCCNC(=N)N)NC(=O)[C@@H](NC(=O)[C@H](CCCNC(=N)N)NC(=O)[C@H](Cc3c[nH]c4ccccc34)NC(=O)[C@H](CCC(N)=O)NC(=O)[C@H](Cc3c[nH]cn3)NC(=O)[C@@H](NC(=O)[C@H](CCC(=O)O)NC(=O)[C@@H](NC(=O)[C@H](CCCNC(=N)N)NC(=O)[C@H](C)NC(=O)[C@H](CCC(=O)O)NC(=O)[C@H](CC(C)C)NC(C)=O)[C@@H](C)CC)[C@@H](C)O)[C@@H](C)CC)C(=O)N[C@@H](CCC(=O)O)C(N)=O)cc2)cc1)C(=O)N[C@H](C(=O)N[C@@H](CCC(=O)O)C(=O)N[C@@H](CCC(=O)O)C(=O)N[C@@H](CC(C)C)C(=O)N[C@@H](CCCNC(=N)N)C(=O)N[C@@H](CCCCN)C(N)=O)[C@@H](C)CC)[C@@H](C)O [CHD^Max-2] (I: Ac-LEARIETHQWRIRELCE-NH2 / II: Ac-LREKIATLQWCIEELRK-NH2; linker I:16-II:11 via X1) | 880 ± 53 | – |
| CC[C@H](C)[C@H](NC(=O)[C@H](CCC(=O)O)NC(=O)[C@H](Cc1c[nH]c2ccccc12)NC(=O)[C@H](CCC(N)=O)NC(=O)[C@H](C)NC(=O)[C@@H](NC(=O)[C@H](CCC(=O)O)NC(=O)[C@H](C)NC(=O)[C@H](CCCCN)NC(=O)[C@H](CCCNC(=N)N)NC(=O)[C@H](CCCNC(=N)N)NC(=O)[C@H](CC(C)C)NC(C)=O)[C@@H](C)O)C(=O)N[C@@H](CCC(=O)O)C(=O)N[C@@H](CCC(=O)O)C(=O)N[C@@H](CC(C)C)C(=O)N[C@@H](CSCc1ccc(COCc2ccc(CSC[C@H](NC(=O)[C@H](Cc3c[nH]c4ccccc34)NC(=O)[C@H](CCC(N)=O)NC(=O)[C@H](CC(C)C)NC(=O)[C@@H](NC(=O)[C@H](C)NC(=O)[C@H](C)NC(=O)[C@H](CCCCN)NC(=O)[C@H](CCC(=O)O)NC(=O)[C@H](CCCNC(=N)N)NC(=O)[C@H](CC(C)C)NC(C)=O)[C@@H](C)O)C(=O)N[C@H](C(=O)N[C@@H](CCC(=O)O)C(=O)N[C@@H](CCC(=O)O)C(=O)N[C@@H](CC(C)C)C(=O)N[C@@H](CCCNC(=N)N)C(=O)N[C@@H](CCCCN)C(N)=O)[C@@H](C)CC)cc2)cc1)C(N)=O [CHD^Max-3] (I: Ac-LREKAATLQWCIEELRK-NH2 / II: Ac-LRRKAETAQWEIEELC-NH2; linker I:11-II:16 via X1) | > 5000 | – |
| CC[C@H](C)[C@H](NC(=O)[C@H](CCCCN)NC(=O)[C@H](CCC(=O)O)NC(=O)[C@H](CCCNC(=N)N)NC(=O)[C@H](CC(C)C)NC(=O)CCNC(=S)Nc1ccc2c(c1)C(=O)OC21c2ccc(O)cc2Oc2cc(O)ccc21)C(=O)N[C@@H](C)C(=O)N[C@H](C(=O)N[C@@H](CC(C)C)C(=O)N[C@@H](CCC(N)=O)C(=O)N[C@@H](Cc1c[nH]c2ccccc12)C(=O)N[C@@H](CSCc1ccc(COCc2ccc(CSC[C@H](NC(=O)[C@H](CC(C)C)NC(=O)[C@H](CCC(=O)O)NC(=O)[C@H](CCC(=O)O)NC(=O)[C@@H](NC(=O)[C@H](CCC(=O)O)NC(=O)[C@H](Cc3c[nH]c4ccccc34)NC(=O)[C@H](CCC(N)=O)NC(=O)[C@H](Cc3c[nH]cn3)NC(=O)[C@@H](NC(=O)[C@H](CCC(=O)O)NC(=O)[C@H](CC(N)=O)NC(=O)[C@H](CCCCN)NC(=O)[C@H](CCCNC(=N)N)NC(=O)[C@H](CCCNC(=N)N)NC(=O)[C@H](CC(C)C)NC(C)=O)[C@@H](C)O)[C@@H](C)CC)C(N)=O)cc2)cc1)C(=O)N[C@H](C(=O)N[C@@H](CCC(=O)O)C(=O)N[C@@H](CCC(=O)O)C(=O)N[C@@H](CC(C)C)C(=O)N[C@@H](CCCNC(=N)N)C(=O)N[C@@H](CCCCN)C(N)=O)[C@@H](C)CC)[C@@H](C)O [FITC–CHD^Max-1] (I: {FITC-βAla}-LREKIATLQWCIEELRK-NH2 / II: Ac-LRRKNETHQWEIEELC-NH2; linker I:11-II:16 via X1) | 350 ± 17 | no binding was observed |
| CC[C@H](C)[C@H](NC(=O)[C@H](CCC(=O)O)NC(=O)[C@H](Cc1c[nH]c2ccccc12)NC(=O)[C@H](CCC(N)=O)NC(=O)[C@H](C)NC(=O)[C@@H](NC(=O)[C@H](CCC(=O)O)NC(=O)[C@H](C)NC(=O)[C@H](CCCCN)NC(=O)[C@H](CCCNC(=N)N)NC(=O)[C@H](CCCNC(=N)N)NC(=O)[C@H](CC(C)C)NC(C)=O)[C@@H](C)O)C(=O)N[C@@H](CCC(=O)O)C(=O)N[C@@H](CCC(=O)O)C(=O)N[C@@H](CC(C)C)C(=O)N[C@@H](CSCc1ccc(COCc2ccc(CSC[C@H](NC(=O)[C@H](Cc3c[nH]c4ccccc34)NC(=O)[C@H](CCC(N)=O)NC(=O)[C@H](CC(C)C)NC(=O)[C@@H](NC(=O)[C@H](C)NC(=O)[C@H](C)NC(=O)[C@H](CCCCN)NC(=O)[C@H](CCC(=O)O)NC(=O)[C@H](CCCNC(=N)N)NC(=O)[C@H](CC(C)C)NC(=O)CCNC(=S)Nc3ccc4c(c3)C(=O)OC43c4ccc(O)cc4Oc4cc(O)ccc43)[C@@H](C)O)C(=O)N[C@H](C(=O)N[C@@H](CCC(=O)O)C(=O)N[C@@H](CCC(=O)O)C(=O)N[C@@H](CC(C)C)C(=O)N[C@@H](CCCNC(=N)N)C(=O)N[C@@H](CCCCN)C(N)=O)[C@@H](C)CC)cc2)cc1)C(N)=O [FITC–CHD^Max-3] (I: {FITC-βAla}-LREKAATLQWCIEELRK-NH2 / II: Ac-LRRKAETAQWEIEELC-NH2; linker I:11-II:16 via X1) | > 5000 | – |
